These results are taken from PubChem BioAssay AID1205 (EPA DSSTox, 2008).

Calls of active or inactive are those of the source.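 The calls were made as follows: active = tumour findings in long-term animal cancer tests in more than one sex, species or organ; inactive = no tumour finding and more than one negative test.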

This data set in a line: DSSTox (CPDBAS) Carcinogenic Potency Database Summary MultiCellCall Results. The following applies: animal carcinogenicity bioassays, multi-cell call summary. Summed up:
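Summary call drawn from chronic long-term cancer bioassays in rats, mice, hamsters, dogs and nonhuman primates, using the most positive result per sex-species. Score: multispecies=50, multisex=30, multisite=20, summed for combinations.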
With `CN(N=O)c1ccc(/C=C/c2ccnc3ccccc23)cc1`, the outcome was “active; multisex active”. For the molecule `Nc1ccc([N+](=O)[O-])cc1N`, the outcome was “inactive; multisex inactive; multispecies inactive”. Regarding `C/[N+]([O-])=N/CO[C@@H]1O[C@H](CO)[C@@H](O)[C@H](O)[C@H]1O`, the outcome is “active; multisite active; multispecies active”. Under `COc1ccc(C(=O)Nc2c(Cl)cncc2Cl)cc1OC1CCCC1` stands “active; multisex active”; under `FC(F)Cl`, “inactive; multisex inactive; multispecies inactive”. As to `C[C@@H]1CC2(O[C@@H]2C)C(=O)O[C@@H]2CCN(C)C/C=C(/COC(=O)[C@]1(C)O)C2=O` (some centres undefined), the outcome was “active; multisite active; multisex active”. `C/C=C1/C[C@@H](C)[C@](O)(CO)C(=O)OCC2=CC[N+]3([O-])CC[C@@H](OC1=O)[C@@H]23` (some centres undefined): the outcome was “active; multisex active”. Turning to `O=S(=O)(O)c1ccc(N=Nc2cc(S(=O)(=O)O)c3ccccc3c2O)c2ccccc12`, the outcome is “inactive; multisex inactive; multispecies inactive”.

As to `NC(=O)N(CCO)N=O`, the outcome is “active; multisite active; multisex active; multispecies active”.

Consider `Nc1ccc(-c2ccccc2)cc1`, for which the outcome is “active; multisite active; multisex active”.

As to `C[C@]12CC[C@H](OS(=O)(=O)O)CC1=CC[C@@H]1[C@@H]2CC[C@]2(C)C(=O)CC[C@@H]12`, the outcome was “inactive; multisex inactive”. In the case of `ClC1=C(Cl)[C@]2(Cl)[C@@H]3[C@H]4C[C@H]([C@@H]5O[C@H]45)[C@@H]3[C@@]1(Cl)C2(Cl)Cl`, the outcome is “inactive; multisex inactive; multispecies inactive”. Regarding `CCCCCCN(N=O)C(N)=O`, the outcome was “active; multisite active; multisex active”. In the case of `CCN(CC)CC#CC(C)(C)OC(=O)C(O)(c1ccccc1)C1CCCCC1` (centres undefined), the outcome was “inactive; multisex inactive; multispecies inactive”. Turning to `NC(N)=NC(N)=NCCc1ccccc1`, the outcome is “inactive; multisex inactive; multispecies inactive”. Turning to `S=C(SN1CCOCC1)N1CCOCC1`, the outcome was “active; multisite active; multisex active”. As to `CC(=O)Nc1ccc(OCC(O)CNC(C)C)cc1` (centres undefined), the outcome was “inactive; multisex inactive; multispecies inactive”. In the case of `O=C(Nc1ccc2c(c1)Cc1ccccc1-2)C(F)(F)F`, the outcome is “active; multisite active”. Then `CCCCCCCCCCCCCCN(C)N=O`, with “active; multisite active”. Turning to `O=C(O)c1nn(Cc2ccc(Cl)cc2Cl)c2ccccc12`, the outcome was “inactive; multisex inactive”. Consider `O=NN1CCOC1=O`, for which the outcome is “active; multisite active”. As to `C[C@@H]1Cc2c(Cl)cc(C(=O)N[C@@H](Cc3ccccc3)C(=O)O)c(O)c2C(=O)O1`, the outcome was “active; multisite active; multisex active; multispecies active”. Regarding `O=C1CCCCC1`, the outcome was “inactive; multisex inactive; multispecies inactive”.

For `CC1=C(C(=O)OC(C)C)C(c2cccc([N+](=O)[O-])c2)C(C(=O)OC2CN(C(c3ccccc3)c3ccccc3)C2)=C(N)N1` (centres undefined), the outcome was “inactive; multisex inactive; multispecies inactive”. Then `Cc1c(N(C)CS(=O)(=O)O)c(=O)n(-c2ccccc2)n1C`, with “active; multisex active”; and `C1CCC(C(CC2CCCCN2)C2CCCCC2)CC1` (centres undefined), with “inactive; multisex inactive”; and `Clc1ccc(-c2cccc(Cl)c2Cl)c(Cl)c1`, with “active; multisite active; multisex active”. Turning to `COC(=O)C1=C(C)NC(C)=C(C(=O)OCC(C)(C)CN(C)Cc2ccccc2)C1c1cc([N+](=O)[O-])ccc1F` (centres undefined), the outcome is “inactive; multisex inactive”. `P`: the outcome was “inactive; multisex inactive”. `CC(=O)Nc1ccc(S(=O)(=O)O)c2cc(S(=O)(=O)O)c(N=Nc3ccc(N=Nc4ccc(S(=O)(=O)O)cc4)c4ccc(S(=O)(=O)O)cc34)c(O)c12`: the outcome was “inactive; multisex inactive; multispecies inactive”. As for `CCOC(=O)CC(SP(=O)(OC)OC)C(=O)OCC` (centres undefined), the outcome is “inactive; multisex inactive; multispecies inactive”. For `CCCCC(CC)COC(=O)COc1ccc(Cl)cc1Cl` (centres undefined), the outcome is “inactive; multisex inactive”. Turning to `CCCC/C=N/N(C)C=O`, the outcome was “active; multisite active; multisex active”.

Take `CN(C)C(=S)[S-].CN(C)C(=S)[S-].[Cu+2]`: the outcome was “inactive; multisex inactive”. On to `CN(C)CCOc1ccc(/C(=C(/CCCl)c2ccccc2)c2ccccc2)cc1`, for which the outcome is “inactive; multisex inactive”.

Consider `O=C1CCO1`, for which the outcome is “active; multisex active; multispecies active”. In the case of `c1ccc(NNc2ccccc2)cc1`, the outcome was “active; multisite active; multisex active; multispecies active”.

As to `OC[C@H]1O[C@H](O[C@]2(CCl)O[C@H](CCl)[C@@H](O)[C@@H]2O)[C@H](O)[C@@H](O)[C@H]1Cl`, the outcome is “inactive; multisex inactive”. Take `CCN(CC)C(=O)/C(Cl)=C(\C)OP(=O)(OC)OC`: the outcome was “inactive; multisex inactive”. Turning to `Cc1noc(NS(=O)(=O)c2ccc(N)cc2)c1C`, the outcome is “inactive; multisex inactive; multispecies inactive”. `Cc1ccc2c(c1N)C(=O)c1ccccc1C2=O`: the outcome was “active; multisite active; multisex active; multispecies active”. As to `CC(Oc1ccc(Cl)cc1Cl)C(=O)O` (centres undefined), the outcome is “inactive; multisex inactive”. For the molecule `CC(C)(Oc1ccc(C2CCCc3ccccc32)cc1)C(=O)O` (centres undefined), the outcome is “active; multisite active; multisex active”.

For `O=NN1CCN(N=O)CC1`, the outcome is “active; multisex active”. Under `O=C1c2ccccc2C(=O)N1SC(Cl)(Cl)Cl` stands “active; multisite active; multisex active”; under `Cc1cc(O)c(C(C)(C)C)cc1Sc1cc(C(C)(C)C)c(O)cc1C`, “inactive; multisex inactive; multispecies inactive”; under `F`, “inactive; multisex inactive; multispecies inactive”. In the case of `CCC(C)c1cc([N+](=O)[O-])cc([N+](=O)[O-])c1O` (centres undefined), the outcome is “inactive; multisex inactive”. As for `NC1CCCCC1`, the outcome is “inactive; multisex inactive; multispecies inactive”. On to `C=CCNN`, for which the outcome is “active; multisite active; multisex active”. For the molecule `CN(C)c1ccc(N=NS(=O)(=O)O)cc1`, the outcome was “inactive; multisex inactive; multispecies inactive”.

Take `O=NN1CCSCC1`: the outcome was “active; multisite active; multisex active”. For `C=CC(=O)O`, the outcome is “inactive; multisex inactive”.

Consider `CCN(CC)C(=O)Nc1ccc(OCC(O)CNC(C)(C)C)c(C(C)=O)c1` (centres undefined), for which the outcome was “inactive; multisex inactive; multispecies inactive”.

As for `C1CCOC1`, the outcome was “active; multisite active; multisex active; multispecies active”. In the case of `CCCN(CCC)c1c([N+](=O)[O-])cc(C(F)(F)F)cc1[N+](=O)[O-]`, the outcome is “active; multisite active”.

As for `CCOC(=O)N(CC)N=O`, the outcome is “active; multisite active”.

As to `COc1ccc(N)c(OC)c1`, the outcome was “inactive; multisex inactive; multispecies inactive”. Take `CC(C)C(C(=O)OC(C#N)c1cccc(Oc2ccccc2)c1)c1ccc(Cl)cc1` (centres undefined): the outcome is “inactive; multisex inactive; multispecies inactive”. Turning to `CNc1ncnc2nc[nH]c12`, the outcome is “inactive; multisex inactive”. In the case of `Nc1cccc2c(N)cccc12`, the outcome was “active; multisite active; multisex active; multispecies active”.

On to `COc1cc(-c2ccc(N=C=O)c(OC)c2)ccc1N=C=O`, for which the outcome was “active; multisite active; multisex active”.

As to `CN1C2CC[C@@H]1CC(NC(=O)c1cc(Cl)cc3c1OC(C)(C)C3)C2` (some centres undefined), the outcome is “inactive; multisex inactive”. Then `ClC1=C(Cl)[C@]2(Cl)[C@@H]3[C@@H]4C[C@@H]([C@H]5O[C@@H]45)[C@@H]3[C@@]1(Cl)C2(Cl)Cl`, with “active; multisex active”; and `CCCCCN(N=O)C(=O)OCC`, with “active; multisite active”; and `C1C2OC2C2C1C1CC2C2OC12` (centres undefined), with “inactive; multisex inactive; multispecies inactive”. For `CN(C)c1ccc(C(=N)c2ccc(N(C)C)cc2)cc1`, the outcome was “active; multisex active; multispecies active”. As to `O=[As](O)(O)O`, the outcome was “inactive; multispecies inactive”.

`N[C@@H](CC(=O)O)C(=O)O`: the outcome was “inactive; multisex inactive”.

As to `S=P(N1CC1)(N1CC1)N1CC1`, the outcome was “active; multisite active; multisex active; multispecies active”. `OC[C@@H](O)[C@@H](O)[C@H](O)[C@H](O)CO`: the outcome is “inactive; multisex inactive; multispecies inactive”. For `Oc1cccc2cccnc12`, the outcome is “inactive; multisex inactive; multispecies inactive”. Take `ClC(Cl)=C(Cl)C(Cl)=C(Cl)Cl`: the outcome was “active; multisex active”. Under `CCCN(N=O)C(N)=O` stands “active; multisex active”; under `OC[C@@H](O)[C@H]1O[C@@H]2O[C@H](C(Cl)(Cl)Cl)O[C@@H]2[C@H]1O`, “inactive; multisex inactive”.

Consider `CCCCNC(N)=O`, for which the outcome is “inactive; multisex inactive; multispecies inactive”. Under `O=c1c(CO)c/c(=N/Nc2ccc(S(=O)(=O)O)c3ccccc23)c(=O)/c1=N/Nc1ccc(S(=O)(=O)O)c2ccccc12` stands “inactive; multisex inactive”; under `COc1ccc(N)c(C)c1`, “active; multisex active”. For `CN(CCCO)N=O`, the outcome was “active; multisite active; multisex active”. For the molecule `CC=O`, the outcome is “active; multisite active; multisex active; multispecies active”. Turning to `FC(F)(Cl)Cl`, the outcome is “inactive; multisex inactive; multispecies inactive”.

In the case of `CC(C)(C)O`, the outcome is “active; multisite active; multisex active; multispecies active”.

Regarding `[Na+]`, the outcome is “inactive; multisex inactive; multispecies inactive”. Under `O=C/C=C/O` stands “active; multisite active; multisex active; multispecies active”.
